# Measurements: patent EP0881220A1, “DIARYLSULTAM DERIVATIVES” (priority 1996, dated 1997)
# pKi: −log10 of the molar value. Where a name gives a salt, the structure may show the parent alone. Read-outs that look alike come from different tables or passages of the source.
# Key:
# [1] = biological target: T1, Dopamine D2 (Rattus norvegicus, UniProt P61169); assay: Binding to dopaminergic receptors using rat striata (method of Terai et al.)
# T1 construct: dopaminergic receptors was also measured using rat striata; from tissue; host or cells: rat striata
# Protocol: The binding of these compounds to dopaminergic receptors was also measured using rat striata according to the method described by Terai et al. (M. Terai, et al., Eur. J. Pharmacol. 1989, 173, 177).
# [2] = biological target: T2, sigma 1 binding site (Cavia porcellus, UniProt Q60492); assay: biochemical
# [3] = biological target: T3, sigma 2 binding site (Rattus norvegicus, UniProt Q5U3Y7); assay: Sigma 2 selective receptor binding inhibition assay with [^3H]-di-o-tolylguanidine; conditions: for S2/S1 Ratio: ratio of Sigma 2 Ki to Sigma 1 Ki
# T3 sequence (Q5U3Y7 1-176): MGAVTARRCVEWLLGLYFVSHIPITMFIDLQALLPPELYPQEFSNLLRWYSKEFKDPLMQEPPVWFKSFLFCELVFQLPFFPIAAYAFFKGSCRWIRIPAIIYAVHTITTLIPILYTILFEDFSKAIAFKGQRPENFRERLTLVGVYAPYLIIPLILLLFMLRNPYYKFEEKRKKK
# [4] = biological target: T2, sigma 1 binding site
# T2 sequence (Q60492 whole entry): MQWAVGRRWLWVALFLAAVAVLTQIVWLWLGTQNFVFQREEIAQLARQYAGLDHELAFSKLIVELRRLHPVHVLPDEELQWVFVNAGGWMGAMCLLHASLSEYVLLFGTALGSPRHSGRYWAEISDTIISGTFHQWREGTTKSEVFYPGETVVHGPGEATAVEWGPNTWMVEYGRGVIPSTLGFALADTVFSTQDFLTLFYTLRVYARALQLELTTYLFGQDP
# T1 sequence (P61169 whole entry): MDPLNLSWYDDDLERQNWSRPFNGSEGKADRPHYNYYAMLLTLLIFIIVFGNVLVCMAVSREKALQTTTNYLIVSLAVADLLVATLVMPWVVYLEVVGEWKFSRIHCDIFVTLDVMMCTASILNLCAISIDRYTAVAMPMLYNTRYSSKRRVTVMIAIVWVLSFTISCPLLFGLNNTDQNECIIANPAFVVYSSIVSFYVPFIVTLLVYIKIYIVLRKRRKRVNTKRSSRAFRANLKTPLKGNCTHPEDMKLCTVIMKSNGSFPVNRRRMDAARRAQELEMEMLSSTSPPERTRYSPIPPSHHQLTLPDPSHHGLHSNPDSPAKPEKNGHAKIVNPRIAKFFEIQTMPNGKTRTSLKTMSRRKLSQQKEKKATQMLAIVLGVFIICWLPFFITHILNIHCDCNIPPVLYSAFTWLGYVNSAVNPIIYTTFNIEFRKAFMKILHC
Compound,pKi [1],pKi [2],pKi [3],S2/S1 Ratio [3],pKi [4],"Ki ([3]; read-out: Sigma 2 Ki(nM ± SEM), [^3H]-DTG 1 nM, rat liver crude P2 membrane fraction, 500 nM pentazocine, 2 hours at 25°C)"
"O=S1(=O)c2ccccc2Nc2ccccc2N1CC1CCN(CC(O)c2ccc(F)cc2F)CC1 (racemic) [Example 3, (R,S)-1-(2,4-Difluorophenyl)-2-[4-(6,11-dihydrodibenzo[c,f][1,2,5]thiadiazepin-6-yl-methyl)piperidin-1-yl]ethanol S,S-dioxide hydrochloride]",6.15,6.55,7.80,0.06,,
"Cc1ccccc1C(O)CN1CCC(CN2c3ccccc3Nc3ccccc3S2(=O)=O)CC1 (racemic) [Example 5, (R,S)-1-(2-Methylphenyl)-2-[4-(6,11-dihydrodibenzo[c,f][1,2,5]thiadiazepin-6-ylmethyl)piperidin-1-yl]ethanol S,S-dioxide hydrochloride]",7.10,7.15,7.89,0.2,,
"CN1c2ccccc2N(CC2CCN(CC(O)C34CC5CC(CC(C5)C3)C4)CC2)S(=O)(=O)c2ccccc21 (racemic) [Example 6, (R,S)-1-(1-Adamantyl)-2-[4-(11-methyl-6,11-dihydrodibenzo[c,f][1,2,5]thiadiazepin-6-ylmethyl)piperidin-1-yl]ethanol S,S-dioxide hydrochloride]",6.77,5.68,8.57,0.001,,
"CN1c2ccccc2N(CC2CCN(CC(O)c3ccc(F)cc3)CC2)S(=O)(=O)c2ccccc21 (racemic) [Example 7, (R,S)-1-(4-Fluorophenyl)-2-[4-(11-methyl-6,11-dihydrodibenzo[c,f][1,2,5]thiadiazepin-6-ylmethyl)piperidin-1-yl]ethanol S,S-dioxide hydrochloride]",6.49,6.27,8.40,0.007,,
"O=S1(=O)c2ccccc2Nc2ccc(Cl)cc2N1CC1CCN(CC(O)C23CC4CC(CC(C4)C2)C3)CC1 (racemic) [Example 8, (R,S)-1-(1-Adamantyl)-2-[4-(8-chloro-6,11-dihydrodibenzo[c,f][1,2,5]thiadiazepin-6-ylmethyl)piperidin-1-yl]ethanol S,S-dioxide hydrochloride]",6.39,6.20,7.80,0.03,,
"O=S1(=O)c2ccccc2Oc2ccccc2N1CC1CCN(CC(O)c2ccc(Cl)cc2)CC1 (racemic) [Example 11, (R,S)-1-(4-Chlorophenyl)-2-[4-(6H-dibenzo[b,f][1,4,5]oxathiazepin-6-ylmethyl)piperidin-1-yl]ethanol S,S-dioxide hydrochloride]",6.70,7.37,8.64,0.05,,
"COc1ccc(C(O)CN2CCC(CN3c4ccccc4Oc4ccccc4S3(=O)=O)CC2)cc1 (racemic) [Example 12, (R,S)-1-(4-Methoxyphenyl)-2-[4-(6H-dibenzo[b,f][1,4,5]oxathiazepin-6-ylmethyl)piperidin-1-yl]ethanol S,S-dioxide hydrochloride]",6.55,7.11,8.15,0.09,,
"Cc1ccc(C(O)CN2CCC(CN3c4ccccc4Oc4ccccc4S3(=O)=O)CC2)cc1 (racemic) [Example 13, (R,S)-1-(4-Methylphenyl)-2-[4-(6H-dibenzo[b,f][1,4,5]oxathiazepin-6-ylmethyl)piperidin-1-yl]ethanol S,S-dioxide hydrochloride]",6.74,7.05,8.80,0.02,,
"O=S1(=O)c2cc(Cl)ccc2Oc2ccccc2N1CC1CCN(CC(O)C23CC4CC(CC(C4)C2)C3)CC1 (racemic) [Example 14, (R,S)-1-(1-Adamantyl)-2-[4-(3-chloro-6H-dibenzo[b,f][1,4,5]oxathiazepin-6-ylmethyl)piperidin-1-yl]ethanol S,S-dioxide hydrochloride]",6.92,6.42,8.51,0.008,,
"O=S1(=O)c2cc(Cl)ccc2Oc2ccccc2N1CC1CCN(CC(O)c2ccccc2)CC1 (racemic) [Example 15, (R,S)-1-Phenyl-2-[4-(3-chloro-6H-dibenzo[b,f][1,4,5]oxathiazepin-6-yl-methyl)piperidin-1-yl]ethanol S,S-dioxide hydrochloride]",6.74,6.96,8.89,0.01,,
"O=S1(=O)c2cc(Cl)ccc2Oc2ccccc2N1CC1CCN(CC(O)c2ccc(F)cc2)CC1 (racemic) [Example 16, (R,S)-1-(4-Fluorophenyl)-2-[4-(3-chloro-6H-dibenzo[b,f][1,4,5]oxathiazepin-6-ylmethyl)piperidin-1-yl]ethanol S,S-dioxide hydrochloride]",6.68,7.07,8.96,0.01,,
"O=S1(=O)c2cc(Cl)ccc2Oc2ccccc2N1CC1CCN(CC(O)c2ccc3ccccc3c2)CC1 (racemic) [Example 17, (R,S)-1-(2-Naphthyl)-2-[4-(3-chloro-6H-dibenzo[[b,f][1,4,5]oxathiazepin-6-ylmethyl)piperidin-1-yl]ethanol S,S-dioxide hydrochloride]",6.46,6.29,8.38,0.008,,
"O=S1(=O)c2cc(Cl)ccc2Oc2ccccc2N1CC1CCN(CC(O)c2ccc(C(F)(F)F)cc2)CC1 (racemic) [Example 18, (R,S)-1-(4-Trifluoromethylphenyl)-2-[4-(3-chloro-6H-dibenzo[b,f][1,4,5]oxathiazepin-6-ylmethyl)piperidin-1-yl]ethanol S,S-dioxide hydrochloride]",6.46,5.96,8.49,0.003,,
"O=S1(=O)c2cc(Cl)ccc2Oc2ccccc2N1CC1CCN(CC(O)c2ccc(OC(F)(F)F)cc2)CC1 (racemic) [Example 19, (R,S)-1-(4-Trifluoromethoxyphenyl)-2-[4-(3-chloro-6H-dibenzo[b,f][1,4,5]oxathiazepin-6-ylmethyl)piperidin-1-yl]ethanol S,S-dioxide hydrochloride]",6.57,5.92,8.08,0.007,,
"COc1ccc2c(c1)N(CC1CCN(CC(O)C34CC5CC(CC(C5)C3)C4)CC1)S(=O)(=O)c1cc(Cl)ccc1O2 (racemic) [Example 20, hydrochloride]",6.10,5.46,8.00,0.003,,
"COc1ccc2c(c1)N(CC1CCN(CC(O)c3ccc(F)cc3)CC1)S(=O)(=O)c1cc(Cl)ccc1O2 (racemic) [Example 21, (R,S)-1-(4-Fluorophenyl)-2-[4-(3-chloro-8-methoxy-6H-dibenzo[b,f][1,4,5]oxathiazepin-6-ylmethyl)piperidin-1-yl]ethanol S,S-dioxide hydrochloride]",6.09,6.38,8.05,0.02,,
"COc1ccc2c(c1)N(CC1CCN(CC(O)c3ccc(F)cc3)CC1)S(=O)(=O)c1ccccc1O2 (racemic) [Example 22, (R,S)-1-(4-Fluorophenyl)-2-[4-(8-methoxy-6H-dibenzo[b,f][1,4,5]oxathiazepin-6-ylmethyl)piperidin-1-yl]ethanol S,S-dioxide hydrochloride]",6.06,7.15,8.43,0.05,,
"CN(CCCCN1c2ccccc2Oc2ccc(Cl)cc2S1(=O)=O)CC(O)C12CC3CC(CC(C3)C1)C2 (racemic) [Example 23, (R,S)-1-(1-Adamantyl)-2-[N-methyl-N-[4-(3-chloro-6H-dibenzo[b,f][1,4,5]oxathiazepin-6-yl)butyl]amino]ethanol S,S-dioxide hydrochloride]",5.96,5.80,7.46,0.02,,
"CN(CCCCN1c2ccccc2Oc2ccc(Cl)cc2S1(=O)=O)CC(O)c1ccc(F)cc1 (racemic) [Example 24, (R,S)-1-(4-Fluorophenyl)-2-[N-methyl-N-[4-(3-chloro-6H-dibenzo[b,f][1,4,5]oxathiazepin-6-yl)butyl]amino]ethanol S,S-dioxide hydrochloride]",6.10,6.85,7.72,0.1,,
"O=C(CN1CCC(CN2c3ccccc3Nc3ccccc3S2(=O)=O)CC1)C12CC3CC(CC(C3)C1)C2 [Example 1, 6-[[1-[2-(1-Adamantyl)-2-oxoethyl]-4-piperidinyl]methyl]-6,11-dihydrodibenzo[c,f][1,2,5]thiadiazepine 5,5-dioxide·hydrochloride]",< 6.00,6.82,8.30,0.03,,
"O=C(O)/C=C/C(=O)O.O=S1(=O)c2ccccc2Nc2ccccc2N1CC1CCN(C[C@H](O)C23CC4CC(CC(C4)C2)C3)CC1.O=S1(=O)c2ccccc2Nc2ccccc2N1CC1CCN(C[C@H](O)C23CC4CC(CC(C4)C2)C3)CC1 [Example 2, (R,S)-1-(1-Adamantyl)-2-[4-(6,11-dihydrodibenzo[c,f][1,2,5]thiadiazepin-6-ylmethyl)piperidin-1-yl]ethanol S,S-dioxide hemifumarate]",6.35,,,0.01,6.49,4.1 nM
